Results taken from patent EP3009422A1, “Photo-switchable sulfonylureas and their uses” (Ludwig-Maximilians-Universität München, priority 2014, dated 2016).

Columns and labels:
isolated murine islets = experiment: Insulin secretion from isolated islets (static incubation, radioimmunoassay); assay type: cell-based, mouse; conditions: diazoxide 250 µM, JB253 50 µM, illumination
Experimental: Insulin secretion was measured from 6 islets per well, incubated at 37 °C for 30 min in 0.5 ml of Krebs-HEPES-bicarbonate (KHB) solution (containing in mM: 130 NaCl, 3.6 KCl, 1.5 CaCl2, 0.5 MgSO4, 0.5 NaH2PO4, 2 NaHCO3, 10 HEPES, and 0.1 % (wt/vol) BSA, pH 7.4) containing the indicated glucose concentration and tolbutamide (100 µM), glimeperide (50 µM), diazoxide (250 µM) and JB253 (50 µM). Illumination (λ = 405 ± 20 nm and 485 ± 6 nm) was performed using a Fluostar Optima microplate reader (BMG Labtech) set to deliver 30 s of light every 2 min to the designated wells. Insulin concentrations were determined in duplicate using specific radioimmunoassay (EMD Millipore).

mouse islets = experiment: Calcium imaging (fMCI) of beta cell activity in intact mouse islets; assay type: cell-based; conditions: for effect of high doses on the effects of JB253 on cytosolic Ca^2+: JB253-treated mouse islets, 405 nm, n = 4-6 recordings; for EC50: mouse islets, concentration-response, read-out: EC50 for cytosolic Ca^2+ rises
Experimental: Male and female CD1 and C57BL6 mice (8-20 weeks) were maintained in a specific pathogen-free facility under a 12h light-dark cycle with ad libitum access to water and food. Animals were euthanized using a schedule-1 method and pancreatic islets isolated by collagenase digestion. All procedures were regulated by the Home Office according to the Animals (Scientific Procedures) Act 1986 of the United Kingdom (PPL 70/7349), and study approval granted by the Animal Welfare and Ethical Review Body (AWERB) of Imperial College. No randomization was used for animal experimentation, since mice were only used as tissue donors.
(§1) Islets were loaded for 30-45 min in fluo2-AM (10 µM) or for 2-5 min with X-Rhod 1 (5 µM) diluted with a mixture of DMSO (0.01%, wt/vol) and pluronic acid (0.001%, wt/vol; all Invitrogen) in a bicarbonate buffer containing in mM: 120 NaCl, 4.8 KCl, 1.25 NaH2PO4, 24 NaHCO3, 2.5 CaCl2, 1.2 MgCl2 and 5 D-glucose. fMCI was performed using a Zeiss Axiovert M200 fitted with a Nipkow spinning-disk head (Yokogawa CSU-10) and a 10x/0.3NA objective adjusted for chromatic aberration (EC Plan-Neofluar, Zeiss). Pulsed excitation (frequency = 0.5 Hz; exposure = 263 ms) was delivered at 491 nm and emitted signals recorded at 500-550 nm with a back-illuminated 16-bit EM-CCD camera (ImageEM 9100-13; Hamamatsu). During recording, islets were maintained at 35-36 °C in the presence of 50 µM JB253 using a custom-manufactured perfusion and heating system (Digital Pixel). Drugs were introduced through the perfusion system at the indicated time points and concentrations. Violet light was delivered by a 405 ± 5 nm laser coupled to the side port of the microscope and configured to fill the back of the objective with light using an Optospot (Cairn Research). Blue light was delivered using 440 ± 5 nm and 491 ± 5 nm diode lasers controlled by a laser merge module (Spectral Applied Research) to allow simultaneous exposure and acquisition. For single islet targeting, a 473 ± 5 nm laser was coupled to a custom-manufactured dichroic array (Cairn Research), allowing user-directed steering of a collimated laser spot across the field of view. Signals were normalized using F/Fmin where F is fluorescence at a given timepoint and Fmin is minimum fluorescence.
(§2) Data distribution was determined using the D'Agostino omnibus test. Non-multifactorial pairwise comparisons were made using either the Student's t-test. Interactions between multiple treatments were assessed using one-way ANOVA followed by pairwise comparisons using Bonferroni's post-hoc test. Effect sizes in islets/cells are usually sufficiently large that multiple animals/independent replication is a more important determinant of power in studies requiring statistical comparison. Non-linear regression was used to calculate the EC50 of normalized and log-transformed concentration-response curves. For [3H]-glibenclamide displacement assays, data points were fitted to the Hill equation before calculation of the halfmax value. In all cases, analysis was performed using Graphpad Prism (Graphpad Software) and IgorPro, and experimental numbers reported as independent biological replicates. No animals or data were excluded from the analysis and results were considered significant at P<0.05.

human islets = experiment: Calcium imaging in isolated human islets of Langerhans; assay type: cell-based; conditions: JB253-treated human islets, 440 nm and 491 nm
Experimental: Human islets were isolated from deceased heart-beating donors (n = 3) at transplantation facilities in Pisa and Edmonton with the relevant national and local ethical permissions, including consent from next of kin where required, and cultured in RPMI supplemented with 5.5 mM D-glucose, 10% foetal calf serum (FCS), 100 U penicillin, 100 µg streptomycin and 0.25/µl fungizone (37 °C, 5% CO2). All studies involving human tissue were approved by the National Research Ethics Committee (NRES) London (Fulham), REC # 07/H0711/114.
as §1, with “For single islet targeting, a 473 ± 5 nm laser was coupled to a custom-manufactured dichroic array (Cairn Research), allowing user-directed steering of a collimated laser spot across the field of view.” left out

SUR1 = target: T1, SUR1 (Rattus norvegicus, UniProt Q09429); experiment: [3H]-glibenclamide displacement radioassay in SUR1-expressing HEK293t cells; assay type: binding; conditions: displacement of [3H]-glibenclamide, SUR1-expressing HEK293t cells, n = 3
T1 construct: expressed in transfected cells; host or cells: HEK293t
T1 sequence (Q09429 whole entry): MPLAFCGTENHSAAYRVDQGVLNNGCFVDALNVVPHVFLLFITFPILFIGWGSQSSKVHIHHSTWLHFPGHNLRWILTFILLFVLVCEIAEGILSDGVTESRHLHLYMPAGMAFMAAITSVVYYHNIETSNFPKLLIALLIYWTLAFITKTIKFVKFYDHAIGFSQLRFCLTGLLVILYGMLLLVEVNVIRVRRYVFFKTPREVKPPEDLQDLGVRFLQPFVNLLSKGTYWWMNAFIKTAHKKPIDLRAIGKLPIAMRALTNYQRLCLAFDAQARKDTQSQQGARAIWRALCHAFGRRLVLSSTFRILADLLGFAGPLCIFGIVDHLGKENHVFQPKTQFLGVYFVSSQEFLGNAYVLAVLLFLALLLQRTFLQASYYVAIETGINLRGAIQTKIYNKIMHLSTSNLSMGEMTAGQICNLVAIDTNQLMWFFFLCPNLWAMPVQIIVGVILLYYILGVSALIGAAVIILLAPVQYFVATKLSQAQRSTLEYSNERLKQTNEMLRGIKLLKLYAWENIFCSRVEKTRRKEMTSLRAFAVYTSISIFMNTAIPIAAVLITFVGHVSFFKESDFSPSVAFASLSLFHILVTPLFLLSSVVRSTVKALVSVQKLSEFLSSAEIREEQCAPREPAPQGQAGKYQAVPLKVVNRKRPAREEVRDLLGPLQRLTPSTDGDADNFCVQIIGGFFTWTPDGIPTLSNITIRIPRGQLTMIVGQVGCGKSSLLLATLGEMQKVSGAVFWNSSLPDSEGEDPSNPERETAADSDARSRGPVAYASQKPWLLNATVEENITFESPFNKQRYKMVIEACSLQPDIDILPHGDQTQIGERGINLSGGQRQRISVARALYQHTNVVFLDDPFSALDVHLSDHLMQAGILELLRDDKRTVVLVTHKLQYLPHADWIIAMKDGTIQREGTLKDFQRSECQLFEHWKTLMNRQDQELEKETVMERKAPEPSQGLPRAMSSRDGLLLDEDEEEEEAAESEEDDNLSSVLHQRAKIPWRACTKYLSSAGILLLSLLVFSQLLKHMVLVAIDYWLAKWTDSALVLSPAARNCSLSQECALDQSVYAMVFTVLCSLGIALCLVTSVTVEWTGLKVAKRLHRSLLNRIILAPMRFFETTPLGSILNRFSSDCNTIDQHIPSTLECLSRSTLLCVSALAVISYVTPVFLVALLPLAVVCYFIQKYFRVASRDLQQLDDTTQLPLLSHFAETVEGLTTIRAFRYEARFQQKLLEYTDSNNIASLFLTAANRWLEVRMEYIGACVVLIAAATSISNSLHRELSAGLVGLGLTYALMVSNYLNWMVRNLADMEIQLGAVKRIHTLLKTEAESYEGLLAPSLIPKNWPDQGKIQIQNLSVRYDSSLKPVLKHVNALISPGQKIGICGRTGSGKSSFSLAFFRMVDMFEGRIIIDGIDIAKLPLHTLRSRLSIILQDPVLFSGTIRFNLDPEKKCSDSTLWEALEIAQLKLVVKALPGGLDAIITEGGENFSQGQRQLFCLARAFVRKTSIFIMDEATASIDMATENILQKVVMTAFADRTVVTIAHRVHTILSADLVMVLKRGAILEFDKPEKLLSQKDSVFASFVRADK
Experimental: SUR1-expressing HEK293t cells were harvested and washed twice in assaying buffer containing in mM: 119 NaCl, 4.7 KCl, […], 1.2 KH2PO4, 1.2 MgSO4, 5 NaHCO3, and 20 HEPES, pH 7.4. In a 96-well plate, ∼200,000 cells/well were incubated for 50 min with [3H]-glibenclamide (PerkinElmer) and different concentrations of glimepiride (Sigma-Aldrich) or JB253. Incubation was terminated by rapid filtration through Whatman GF/C filters by means of a Brandel MWXR-96 TI harvester and filters were washed 3 times with ice-cold assay buffer. Radioactivity was counted 6 h after cell and filter lysis in 200 µL Rotiszint EcoPlus (Roth) using a Packard microbeta scintillation counter (PerkinElmer).
as §2

Epac2A = experiment: Epac2-camps FRET imaging in HEK293t cells; assay type: cell-based; conditions: HEK293t cells expressing full length Epac2-camps; JB253 as cis-JB253 (excitation 440 nm)
Experimental: For EPAC2 imaging, HEK293t were transfected with the full length construct for […] containing the cAMP and sulfonylurea binding domains (obtained from Prof. […] Excitation was delivered at 440 nm and emitted signals captured using […] filters. FRET was calculated as the ratio of Cerulean (CFP):Venus (YFP) fluorescence. Signals were normalized using R/R0 where R is the ratio at a given timepoint and R0 is the minimum ratio.

SMILES | effect on light-induced insulin secretion of JB253-treated islets (isolated murine islets) | effect of high doses on the effects of JB253 on cytosolic Ca^2+ (mouse islets) | effect on JB253 effects on intracellular Ca^2+ (human islets) | IC50 (SUR1) | ΔR/R0 (decrease in FRET) (Epac2A) | EC50 (mouse islets) | IC50 (SUR1; cis-state may relax thermally during washing)
CC1=NS(=O)(=O)c2cc(Cl)ccc2N1 [diazoxide, reference compound] | partially reversed | suppress | reversed | – | – | – | –
CCCCNC(=O)NS(=O)(=O)c1ccc(C)cc1 [tolbutamide, reference compound] | – | augment | mimicked | – | – | – | –
CCC1=C(C)CN(C(=O)NCCc2ccc(S(=O)(=O)NC(=O)N[C@H]3CC[C@H](C)CC3)cc2)C1=O [glimepiride, reference compound] | – | – | – | 8.3 nM | 0.052 AU | 399 nM | –
CCN(CC)c1ccc(/N=N\c2ccc(S(=O)(=O)NC(=O)NC3CCCCC3)cc2)cc1 [cis-JB253] | – | – | – | – | – | 675 nM | 14800 nM
